This is an account of results in the supplement of paper PMC10790783.

For this test, the system named is MRC5-hT fibroblasts expressing HCMV UL38 (glucose-free medium). Nature of the test: rescue of cell number (AUC of dose-response) relative to untreated glucose-free control; higher = stronger protection from glucose-starvation-induced cell death. The settings on record: glucose: 0 (glucose-free DMEM); 96 h; dose range 0.001-20, 10-point curve µM. The method, then:
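MRC5-hT fibroblasts stably expressing HCMV UL38 were seeded in 384-well plates, serum-starved for 24 h, switched to glucose-free DMEM, and pin-transferred with a metabolism-focused compound library as 10-point dose curves (1 nM to 20 µM; n=2). Nuclei were counted by Hoechst imaging 96 h after glucose withdrawal.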
Take `CCC(C)N(C)C(=O)c1cc2ccccc2c(-c2ccccc2Cl)n1` (configuration not stated): the “rescue of cell number” value came to 15.2%.

In the case of `CCN(CC)Cc1ccc(C(=O)N(CCc2ccccc2OC)[C@@H]2CCNC2)cc1`, the “rescue of cell number” value is 63.9%.

For `CCc1c(-c2ccccc2)c(-c2ccccc2)nn1-c1ccccc1-c1cccc(OCC(=O)O)c1`, the “rescue of cell number” value is -14.6%.

In the case of `Cc1ccc(-c2c(-c3nn(C)c4ncnc(N5CC[C@H](N6CCCCC6)C5)c34)cnn2C)cc1`, the “rescue of cell number” value stood at 45.6%.

On to `Cc1ccc(-c2cc(=O)c3ccc4ccccc4c3o2)cc1`, for which the “rescue of cell number” value was 155%.

Regarding `Cc1cccc(CC(=O)N2CCc3c2ccc(-c2cn(C)c4ncnc(N)c24)c3F)n1`, the “rescue of cell number” value stood at 70.7%.

As for `Cc1n[nH]c(C)c1Cc1sc2c(c1C(=O)N1C[C@H](O)CO1)c(=O)n(C)c(=O)n2CC(C)C`, the “rescue of cell number” value was 78.9%.

With `Cc1nc2ccc(C(=O)N3CCC4(CC3)CC(=O)c3c(cnn3C(C)C)C4)cc2[nH]1`, the “rescue of cell number” value was 31.8%.

`Cc1nccn1-c1ccc(Sc2cccc(C3(C(N)=O)CCOCC3)c2)cc1`: the “rescue of cell number” value was determined as 13%.

`N#CC(CCCN1CCN(/N=C/c2cccnc2)CC1)(c1ccccc1)c1ccccc1`: the “rescue of cell number” value is 99.9%.

`Nc1ncnc2c1C(=O)N(c1ccc([C@H]3CC[C@H](CC(=O)O)CC3)cc1)CCO2`: the “rescue of cell number” value is -20.9%.

For the molecule `O=C(C1CC1)N1CC[C@@H](Cc2n[nH]c(=O)n2-c2ccc(-c3ccc4occc4c3)cc2)C1`, the “rescue of cell number” value worked out at 117%.

As for `O=C(Nc1ccccc1)Nc1ccc(-c2ccc(C(=O)[C@@H]3CCC[C@H]3C(=O)O)cc2)cc1`, the “rescue of cell number” value is -36.5%.

As to `O=C(O)C[C@@]1(O)C[C@@H](CCCCCCc2ccc(Cl)cc2Cl)OC1=O`, the “rescue of cell number” value was determined as 45.4%.

With `O=C(O)c1ccccc1SC1=NS(=O)(=O)c2ccccc21`, the “rescue of cell number” value was -13.9%.

Turning to `O=C1CSC(c2ccccc2Cl)c2cc(Cl)ccc2N1` (configuration not stated), the “rescue of cell number” value was 3.61%.

With `COC(=O)c1ccc([C@H]2c3[nH]c4ccccc4c3C[C@H](C(=O)OC)N2C(=O)CCl)cc1` [1S,3R-RSL3], the “rescue of cell number” value was 35.2%.

As for `OC[C@H]1NC[C@H](O)[C@@H](O)[C@@H]1O` [1_Deoxynojirimycin], the “rescue of cell number” value was 5.66%.

As to `CC(=O)NC(CSC(=S)Nc1ccc(NC(=S)SCC(NC(C)=O)C(=O)O)cc1)C(=O)O` (configuration not stated) [2-AAPA hydrate], the “rescue of cell number” value is -9.91%.

For `O=[N+]([O-])c1ccc(O)c([N+](=O)[O-])c1` [2_4_Dinitrophenol], the “rescue of cell number” value was 16.9%.

In the case of `COc1cc2c(cc1O)CC[C@@H]1[C@@H]2CC[C@]2(C)[C@@H](O)CC[C@@H]12` [2_Methoxyestradiol], the “rescue of cell number” value stood at 22.8%.

Turning to `O=C(O)CC[N+](=O)[O-]` [3_Nitropropionic_acid], the “rescue of cell number” value is -31.7%.

Consider `Cc1cc(=O)oc2c(C=O)c(O)ccc12` [4mu8C], for which the “rescue of cell number” value was 23.6%.

Consider `O=c1[nH]cc(F)c(=O)[nH]1` [5_Fluorouracil], for which the “rescue of cell number” value was -15.2%.

With `NC(=O)c1ccc(N)nc1` [6_Aminonicotinamide], the “rescue of cell number” value was determined as 32.1%.

Consider `O=c1cnn([C@@H]2O[C@H](CO)[C@@H](O)[C@H]2O)c(=O)[nH]1` [6_Azauridine], for which the “rescue of cell number” value is -34.1%.

With `S=c1nc[nH]c2nc[nH]c12` [6_Mercaptopurine], the “rescue of cell number” value was -28.9%.

Consider `Nc1nc(=S)c2[nH]cnc2[nH]1` [6_Thioguanine], for which the “rescue of cell number” value worked out at 42.9%.

For the molecule `C=CCNC1=C2C[C@@H](C)C[C@H](OC)[C@H](O)[C@@H](C)/C=C(\C)[C@H](OC(N)=O)[C@@H](OC)/C=C\C=C(/C)C(=O)NC(=CC1=O)C2=O` [17_AAG], the “rescue of cell number” value turned out to be 54.1%.

As to `O=C(O)[C@@]1(CCCCCCOc2ccc(Cl)cc2)CO1` [(R)_(+)_Etomoxir_sodium_salt], the “rescue of cell number” value was 17.7%.

In the case of `CC1(C)CCC(c2ccc(Cl)cc2)=C(CN2CCN(c3ccc(C(=O)NS(=O)(=O)c4ccc(N[C@H](CCN5CCOCC5)CSc5ccccc5)c(S(=O)(=O)C(F)(F)F)c4)cc3)CC2)C1` [ABT_263], the “rescue of cell number” value came to 33.6%.

As to `CN(C)CC[C@H](CSc1ccccc1)Nc1ccc(S(=O)(=O)NC(=O)c2ccc(N3CCN(Cc4ccccc4-c4ccc(Cl)cc4)CC3)cc2)cc1[N+](=O)[O-]` [ABT_737], the “rescue of cell number” value is -33.6%.

In the case of `NCCc1ccc(S(=O)(=O)F)cc1` [AEBSF], the “rescue of cell number” value is 50.3%.

As to `N#Cc1ccnc(N2C(=O)CC[C@H]2C(=O)N(c2cncc(F)c2)[C@H](C(=O)NC2CC(F)(F)C2)c2ccccc2Cl)c1` [AG-120], the “rescue of cell number” value is -8.45%.

As for `CC(C)(O)CNc1nc(Nc2ccnc(C(F)(F)F)c2)nc(-c2cccc(C(F)(F)F)n2)n1` [AG-221], the “rescue of cell number” value came to 26.9%.

For `Cc1ccccc1C(C(=O)NC1CCCCC1)N(C(=O)Cn1ccnc1C)c1cccc(F)c1` (configuration not stated) [AGI_5198], the “rescue of cell number” value is 48.3%.

Turning to `O=C(Nc1cccc(C(F)(F)F)c1)Nc1cc(S(=O)(=O)NC2CC2)ccc1-c1ccsc1` [AGI_6780], the “rescue of cell number” value was -23.4%.

Regarding `NC(=O)c1ncn([C@@H]2O[C@H](CO)[C@@H](O)[C@H]2O)c1N` [AICAR], the “rescue of cell number” value is -30.3%.

`NCCOCCOCCNC(=O)Cc1ccc(Nc2nc(NCc3ccc(F)cc3)nc(NCC3CCCCC3)n2)cc1` [AP-III-a4]: the “rescue of cell number” value is 33.4%.

For the molecule `C[N+](C)(C)CCO.C[N+](C)(C)CCO.[SH-].[SH-].[S]=[Mo]=[S]` [ATN-224], the “rescue of cell number” value is -20.1%.

As for `Cc1[nH]nc(C(F)(F)F)c1Cc1sc2c(c1C(=O)N1C[C@](C)(O)CO1)c(=O)n(C)c(=O)n2C(C)C` [AZD3965], the “rescue of cell number” value is 0.308%.

Take `N[C@H](C(=O)O)[C@@H]1CC(Cl)=NO1` [Acivicin]: the “rescue of cell number” value is -32.4%.

With `Cc1c2oc3c(C)ccc(C(=O)N[C@@H]4C(=O)N[C@H](C(C)C)C(=O)N5CCC[C@H]5C(=O)N(C)CC(=O)N(C)[C@@H](C(C)C)C(=O)O[C@@H]4C)c3nc-2c(C(=O)N[C@@H]2C(=O)N[C@H](C(C)C)C(=O)N3CCC[C@H]3C(=O)N(C)CC(=O)N(C)[C@@H](C(C)C)C(=O)O[C@@H]2C)c(N)c1=O` [Actinomycin_D], the “rescue of cell number” value was 27.1%.

For `CCCCC[C@H](CC(=O)NO)C(=O)N[C@H](C(=O)N1CCC[C@H]1CO)C(C)C` [Actinonin], the “rescue of cell number” value is -1.46%.

As to `Oc1cccnc1NC(c1ccc(Cl)cc1)c1ccc2cccnc2c1O` (configuration not stated) [Adaptaquin], the “rescue of cell number” value was found to be 33.2%.

On to `Oc1ncnc2[nH]ncc12` [Allopurinol], for which the “rescue of cell number” value is -22.3%.

For the molecule `O=C(O)CN1C(=O)c2cccc3cccc(c23)C1=O` [Alrestatin], the “rescue of cell number” value was determined as 4.91%.

For `NCCCNCCSP(=O)(O)O` [Amifostine], the “rescue of cell number” value was determined as 110%.

On to `CC(C)(C#N)c1cc(Cn2cncn2)cc(C(C)(C)C#N)c1` [Anastrozole], for which the “rescue of cell number” value amounted to 29.4%.

`CCCCCC[C@H]1C(=O)O[C@H](C)[C@H](NC(=O)c2cccc(NC=O)c2O)C(=O)O[C@@H](C)[C@@H]1OC(=O)CC(C)C` [Antimycin_A]: the “rescue of cell number” value was -7.1%.

Turning to `O=c1cc(-c2ccc(O)cc2)oc2cc(O)cc(O)c12` [Apigenin], the “rescue of cell number” value was determined as 58%.

Turning to `C[C@@H]1CC[C@H]2[C@@H](C)C(=O)O[C@@H]3O[C@@]4(C)CC[C@@H]1[C@]32OO4` [Artemisinin], the “rescue of cell number” value worked out at 15.9%.
